According to patent publication US12038433B2, “Methods and apparatus for high-throughput screening for testing permeability and retention of compounds across biological barriers” (Board of Regents, The University of Texas System, priority 2019, dated 2024):

Assays:
[1] = 96-well plate permeation study of doxycycline, skin measured with mass spec pen; assay type: in vitro ADME; settings: 24 hours, different concentrations applied
Method: A permeation study was done using the 96-well plates screening method over a course of 24 hours. Doxycycline at different concentrations was used as a model drug. After 24 hours, the receptor fluid was removed, and the plates were disassembled. The mass spec pen (described by Zhang et al. and Sans et al.) was used to measure the amount of doxycycline on the top layers of the skin (epidermis side) and on the bottom layers of the skin (dermis side) by flipping the skin upside down (26, 27).

[2] = Feasibility in vitro permeation study using squared and flat 384-well plates; assay type: in vitro ADME; settings: 8 h, between the 0.5 mg/ml SRB and the 0.05 mg/ml SRB applied, lateral diffusion present
Method: Feasibility studies were conducted using squared and flat 384-well plates with no ridges or projected wells. The plates were assembled the same way as presented in Example 4. […] […] […] Samples were taken after 8 h and measured using fluorescence in a plate reader.

[3] = Skin retention analysis of SRB by two-photon-induced fluorescence imaging (FC vs HTS); assay type: in vitro ADME, human; settings: surface down to 150 μm, after 8 h (FIG. 8)
Source text: A two-photon-induced fluorescence imaging was used to determine the retention of SRB in the skin using a Prairie Technologies Ultimalntravital 2PA confocal microscope system (Park et al., 2008; Denk et al., 1990). The microscope objective was an Olympus® 10×, 0.30 NA, UMPlanFL N water immersion lens. Two-photon laser excitation was provided by a Spectra-Physics Tsunami® Ti:Sapphire laser with a τP=150 fs and P=108 mW. The laser was tuned to 1000 nm, since SRB excites at 550 nm and no skin autofluorescence is observed at this wavelength. Four fluorescence channels were detected simultaneously during imaging. The photomultiplier tube (PMT) bias voltages for each channel were set to 650 V for channel 1, 650 V for channel 2 (where SRB is detected), 800 V for channel 3 (where we can measure the autofluorescence of the skin), and 800 V for channel 4. Skin autofluorescence or second harmonic generation of collagen were detected in channels 3 and 4, respectively (Roberts et al., 2011). The fluorescence emission of SRB was recorded in channel 2 (λ=595±35 nm) since the wavelength of emission for SRB is 590 nm. Skin images were recorded above the surface of the skin and the maximum fluorescence intensity was considered to be the top layer or surface of the skin since excess of formulation was still present at the top of the skin at the end of the permeation study (8 h). […]

[4] = Permeation of SRB across tape-stripped skin, 96-well HTS compared with Franz cells, receptor fluid fluorescence; assay type: in vitro ADME, human; settings: SRB 0.5 mg/ml, 8 h, 32° C., p-value >0.05 (FIG. 7)
Source text: “The 96-well plates, with and without bottom, were modified by inserting 2 symmetric and parallel holes in each side of the plate using a drill. The holes were made in order to attach the plates together as a sandwich. The skin was tape-stripped 15 times, rubbing with a thumb three times before each strip (in the same manner as for the Franz cells). Tape-stripping was necessary to allow for drug permeation across the skin and direct quantification in the receptor compartment. […] The receptor fluid analysis was needed to compare permeability of SRB between methods (FC and HTS).”
“The 96-well plate with the bottom was used as the receptor compartment. The volume of each well is 380 μL and the area of diffusion is 0.38 cm^2. The receptor compartment was overfilled with degassed PBS (pH=7.4) to avoid the formation of any bubbles that would hinder drug permeation. […]
The plate was incubated at 32° C. for 1 h. […] After 8 h, the plates were disassembled and the receptor plate was analyzed using a spectrophotometer (Infinite M200 microplate reader, TECAN US Inc, NC, USA) for the quantification of fluorescence intensity (λexcitation=550 nm and λemission=590 nm). Standard solutions of SRB in PBS (pH=7.4) in the range of 500-0.03 μg/ml were prepared and the fluorescence intensity was measured to obtain the calibration curve. […]

[5] = HTS formulation screening, retention of SRB in skin layers by 2 photon microscopy (3x2x3 full factorial design); assay type: in vitro ADME, human
Method: (§1) Two bottomless 96-well plates from Greiner bio-one were used.
(§2) The receptor plate was sealed with an adhesive film and overfilled with PBS (pH=7.4).
(§3) An 8×9 cm of skin tissue was placed on top of the receptor plate, dermis side in contact with the receptor fluid and stratum corneum up. The donor plate was placed on top of the skin. A 4 kg weight was placed on top and nuts were attached to the plate.
(§4) This sandwich was incubated for 1 hour at 32 deg C. and 75 rpm. After 1 hour, the formulations prepared in Table 1 and containing 0.5 mg/ml of SRB as a model hydrophilic drug were applied in triplicate to the donor wells.
(§5) The receptor compartment was analyzed by fluorescence using a plate reader and the skin was analyzed using 2 photon microscopy, the same way as described in Example 4. Images were collected at 256×256 pixels and 223.78 μm×223.78 μm. The z-axis profile was obtained by acquiring images at every 10 μm down the skin, up to 200 μm. The detailed 2-photon analysis utilized in this study took approximately 2 h (around a minute to 2 min for each well).
A 3×2×3 full factorial design was used to design the experiment and statistically analyze the differences in permeation and retention of the formulations applied in the skin.

[6] = not tape-stripped; cited from earlier work
[7] = HTS formulation screening, permeability of SRB across the skin into the receptor fluid (plate reader fluorescence); assay type: in vitro ADME, human; settings: not statistically significant (FIG. 10 E)
Method: as §1, §2, §3, §4, §5

Structure (SMILES) | permeation, amount on top (epidermis side) and bottom (dermis side) layers of the skin [1] | permeability of SRB across the skin [2] | depth profile/Z-axis profile, relative change in fluorescence intensity over every 5 μm depth in the skin, FC vs HTS [3] | permeation and distribution of the drug, Franz cells (FC) vs HTS [4] | amount of SRB inside the skin ([5]; 5% and 2.5% surfactant concentration compared to no surfactant, post hoc analysis) | amount of the model drug in the skin layers ([5]; DMSO alone compared to 50:50 mixture of DMSO:Propylene glycol) | amount of SRB into the skin ([5]; DMSO compared to Propylene glycol alone, only at lower depths (100-150 micrometers)) | amount of drug inside the skin ([5]; OA (oleic acid) in the formulation, PG solvent (FIG. 10 A, B)) | amount of SRB inside the skin ([5]; increasing the concentration of Tween 80, PG solvent (FIG. 10 C, D)) | Statistically significant variables on the amount of SRB retained ([5]; skin depth 0 μm, solvent ratio factor) | Statistically significant variables on the amount of SRB retained ([5]; skin depth 0 μm, surfactant concentration factor) | Statistically significant variables on the amount of SRB retained ([5]; skin depth 20 μm, solvent ratio factor) | Statistically significant variables on the amount of SRB retained ([5]; skin depth 20 μm, surfactant concentration factor) | Statistically significant variables on the amount of SRB retained ([5]; skin depth 100 μm, solvent ratio factor) | Statistically significant variables on the amount of SRB retained ([5]; skin depth 100 μm, surfactant concentration factor) | Statistically significant variables on the amount of SRB retained ([5]; skin depth 150 μm) | permeation across intact skin [6] | amount of drug across the skin, into the receptor solution ([7]; OA (oleic acid) in the formulation) | amount of SRB across the skin ([7]; increasing the concentration of Tween 80)
C[C@H]1c2cccc(O)c2C(=O)C2=C(O)[C@]3(O)C(=O)C(C(N)=O)=C(O)[C@@H](N(C)C)[C@@H]3[C@@H](O)[C@@H]21 [Doxycycline] | Changes in permeation were detected | – | – | – | – | – | – | – | – | – | – | – | – | – | – | – | – | – | –
CCN(CC)c1ccc2c(-c3ccc(S(=O)(=O)O)cc3S(=O)(=O)[O-])c3ccc(=[N+](CC)CC)cc-3oc2c1 [SRB, Sulforhodamine B] | – | changed | similar | almost identical | increases the amount of SRB inside the skin | enhances the amount of the model drug in all the skin layers | significantly enhance the amount of SRB into the skin | increased the amount of drug inside the skin | increased the amount of SRB inside the skin | Solvent ratio (*) | Surfactant concentration (**) | Solvent ratio (**) | Surfactant concentration (*) | Solvent ratio (**) | Surfactant concentration (*) | Solvent ratio (**) | unable to permeate intact skin | also across the skin | not across the skin
